Assay results reported in PMC6350255 (Journal of medicinal chemistry, 2018).
“Also recorded” adds a separate entry of the source.

How the values were obtained:
[1] = test system: human β-cells (dispersed human pancreatic islets); format: cell-based; details: for human β-cell proliferation in words, dose response / overall: doses of 3–30 μM
[2] = test system: NFAT2-GFP nuclear translocation in R7T1 rat beta cell line; assay: NFAT2 translocation assay; format: cell-based; details: 10 μM, 24 h

Row | SMILES | human β-cell proliferation, Ki-67 immunolabeling ([1]; 10 μM, 96 h) | human β-cell proliferation in words, dose response / overall [1] | NFAT2 translocation to nucleus [2] | beta cell toxicity (human β-cells)
1 | COc1ccc2c(c1)[nH]c1c(C)nc(CO)cc12 [2–8, (1-Methyl-7-methoxy-9H-pyrido[3,4-b]indol-3-yl)methanol] | comparable to that of harmine | excellent human β-cell proliferation; also recorded: caused proliferation in a dose-dependent manner; also recorded: superior human β-cell proliferation at a lower dose as compared to 2–2; also recorded: comparable to that of harmine | drove NFAT2 translocation | did not cause toxicity
2 | COc1ccc2c(c1)[nH]c1c(CO)nccc12 [Compound 2–2, 1-Hydroxymethyl-7-methoxy-9H-β-carboline] | – | – | drove NFAT2 translocation | did not cause toxicity
3 | COc1ccc2c(c1)[nH]c1c(C(C)=O)nccc12 [Compound 3–2, 1-Acetyl-7-methoxy-9H-β-carboline] | – | comparable to that of harmine | – | –
4 | COc1ccc2c(c1)[nH]c1c(Cl)nccc12 [1–5, 1-Chloro-7-methoxy-9H-β-carboline] | – | comparable to that of harmine | – | –
